The values below come from ChEMBL document CHEMBL5291721, “A preclinical secondary pharmacology resource illuminates target-adverse drug reaction associations of marketed drugs” (Nat Commun, 2023).

Targets include Histamine H3 receptor (Homo sapiens, UniProt Q9Y5N1); Histamine H1 receptor (Homo sapiens, UniProt P35367); Cannabinoid receptor 1 (Homo sapiens, UniProt P21554); Vasopressin V1a receptor (Homo sapiens, UniProt P37288).
Assay [1] addresses T1, Beta-2 adrenergic receptor (Homo sapiens, UniProt P07550).
Assay [2] deals with T2, Mu-type opioid receptor (Homo sapiens, UniProt P35372).
T2 sequence (P35372 whole entry): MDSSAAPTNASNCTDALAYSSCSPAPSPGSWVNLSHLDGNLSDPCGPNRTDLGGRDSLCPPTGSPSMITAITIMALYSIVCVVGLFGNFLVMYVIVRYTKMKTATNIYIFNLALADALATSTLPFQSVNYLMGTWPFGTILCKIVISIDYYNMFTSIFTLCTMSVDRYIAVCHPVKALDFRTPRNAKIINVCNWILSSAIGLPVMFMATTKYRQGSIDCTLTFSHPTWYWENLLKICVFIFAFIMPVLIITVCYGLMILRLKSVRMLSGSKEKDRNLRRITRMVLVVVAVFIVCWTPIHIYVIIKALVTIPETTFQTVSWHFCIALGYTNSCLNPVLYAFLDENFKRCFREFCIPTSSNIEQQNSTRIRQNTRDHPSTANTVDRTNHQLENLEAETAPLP
For assay [3], the target named is T3, Alpha-1A adrenergic receptor (Homo sapiens, UniProt P35348).
T3 sequence (P35348 whole entry): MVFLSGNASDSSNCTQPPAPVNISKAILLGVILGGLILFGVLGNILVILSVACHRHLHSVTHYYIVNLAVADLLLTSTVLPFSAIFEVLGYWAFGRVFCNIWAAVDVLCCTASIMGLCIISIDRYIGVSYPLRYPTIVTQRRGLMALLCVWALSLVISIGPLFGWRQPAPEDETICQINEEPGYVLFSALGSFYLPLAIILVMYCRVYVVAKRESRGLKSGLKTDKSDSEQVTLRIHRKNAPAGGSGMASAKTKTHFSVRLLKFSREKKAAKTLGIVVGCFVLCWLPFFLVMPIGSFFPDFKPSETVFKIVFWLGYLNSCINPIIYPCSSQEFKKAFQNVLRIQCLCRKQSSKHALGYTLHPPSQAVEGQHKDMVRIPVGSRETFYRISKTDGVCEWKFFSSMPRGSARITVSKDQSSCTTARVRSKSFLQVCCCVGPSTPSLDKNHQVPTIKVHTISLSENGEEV

Assay [4] addresses Gamma-aminobutyric acid receptor subunit alpha-1/alpha-2/beta-2/gamma-2 (Homo sapiens, UniProt P14867+P18507+P47869+P47870). Format: functional, cell-based.
Assay [5] addresses T4, 5-hydroxytryptamine receptor 2A (Homo sapiens, UniProt P28223). Format: functional, cell-based.
Assay [6] concerns the target Muscarinic acetylcholine receptor M3 (Homo sapiens, UniProt P20309).
Assay [7] addresses T1, Beta-2 adrenergic receptor. Format: functional, cell-based.
For assay [8], the target named is T4, 5-hydroxytryptamine receptor 2A. Type of assay: functional, cell-based. This is another data set of the same source.
The target of assay [9] is T5, Gastrin/cholecystokinin type B receptor (Homo sapiens, UniProt P32239).
T5 sequence (P32239 whole entry): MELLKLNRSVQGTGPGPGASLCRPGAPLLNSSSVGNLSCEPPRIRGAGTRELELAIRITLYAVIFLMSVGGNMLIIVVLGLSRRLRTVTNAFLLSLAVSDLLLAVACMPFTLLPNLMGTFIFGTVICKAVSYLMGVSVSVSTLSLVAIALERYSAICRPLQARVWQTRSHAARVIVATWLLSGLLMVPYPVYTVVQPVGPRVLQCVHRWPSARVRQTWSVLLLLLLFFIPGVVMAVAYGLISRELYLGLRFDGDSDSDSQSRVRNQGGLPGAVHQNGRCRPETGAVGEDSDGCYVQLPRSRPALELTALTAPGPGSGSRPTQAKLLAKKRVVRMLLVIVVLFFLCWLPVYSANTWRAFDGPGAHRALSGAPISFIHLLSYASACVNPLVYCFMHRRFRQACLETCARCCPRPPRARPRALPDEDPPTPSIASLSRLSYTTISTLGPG

A further assay addresses T6, Endothelin-1 receptor (Homo sapiens, UniProt P25101).
T6 sequence (P25101 whole entry): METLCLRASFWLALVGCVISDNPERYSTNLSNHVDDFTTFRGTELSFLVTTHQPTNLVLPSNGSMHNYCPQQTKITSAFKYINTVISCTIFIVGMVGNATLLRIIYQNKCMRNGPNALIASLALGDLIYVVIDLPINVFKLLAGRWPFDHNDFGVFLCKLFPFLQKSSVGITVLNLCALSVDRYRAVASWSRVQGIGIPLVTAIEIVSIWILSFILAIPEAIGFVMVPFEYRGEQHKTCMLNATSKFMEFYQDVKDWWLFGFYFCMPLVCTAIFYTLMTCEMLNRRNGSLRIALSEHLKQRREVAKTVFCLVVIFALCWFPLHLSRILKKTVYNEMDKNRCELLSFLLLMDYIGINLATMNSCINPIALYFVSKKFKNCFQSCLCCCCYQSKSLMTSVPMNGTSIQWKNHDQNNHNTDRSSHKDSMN

Assay [10] addresses T2, Mu-type opioid receptor. Put plainly: biochemical. Type of assay: functional.
In another assay the target is T7, Androgen receptor (Rattus norvegicus, UniProt P15207).
T7 sequence (P15207 whole entry): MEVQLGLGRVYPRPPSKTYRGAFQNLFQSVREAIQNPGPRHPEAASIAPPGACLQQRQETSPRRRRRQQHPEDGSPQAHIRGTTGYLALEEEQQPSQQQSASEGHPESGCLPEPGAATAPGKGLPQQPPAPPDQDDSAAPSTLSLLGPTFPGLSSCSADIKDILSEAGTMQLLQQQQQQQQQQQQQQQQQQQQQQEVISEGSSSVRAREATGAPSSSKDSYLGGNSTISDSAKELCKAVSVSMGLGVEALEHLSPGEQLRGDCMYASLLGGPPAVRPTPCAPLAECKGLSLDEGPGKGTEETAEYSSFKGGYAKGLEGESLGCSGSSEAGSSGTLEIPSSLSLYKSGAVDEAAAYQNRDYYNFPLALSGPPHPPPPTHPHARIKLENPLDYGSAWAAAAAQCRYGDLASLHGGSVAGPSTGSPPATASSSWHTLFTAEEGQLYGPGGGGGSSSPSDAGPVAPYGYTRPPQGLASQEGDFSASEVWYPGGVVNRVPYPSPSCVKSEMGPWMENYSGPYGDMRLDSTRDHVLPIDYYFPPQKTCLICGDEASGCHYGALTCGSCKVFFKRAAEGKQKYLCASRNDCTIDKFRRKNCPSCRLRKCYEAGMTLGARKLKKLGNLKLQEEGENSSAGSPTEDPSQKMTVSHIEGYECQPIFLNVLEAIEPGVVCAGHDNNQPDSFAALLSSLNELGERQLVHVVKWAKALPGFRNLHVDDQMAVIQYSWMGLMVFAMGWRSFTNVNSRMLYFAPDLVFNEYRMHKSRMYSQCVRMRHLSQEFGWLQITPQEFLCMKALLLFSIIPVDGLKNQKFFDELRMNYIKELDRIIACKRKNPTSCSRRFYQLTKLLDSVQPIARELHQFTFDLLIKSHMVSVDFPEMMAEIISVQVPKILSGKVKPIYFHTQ
Type of assay: functional.
Note: assay procedure not described here.

Chain of Muscarinic acetylcholine receptor M3 (P20309 whole entry): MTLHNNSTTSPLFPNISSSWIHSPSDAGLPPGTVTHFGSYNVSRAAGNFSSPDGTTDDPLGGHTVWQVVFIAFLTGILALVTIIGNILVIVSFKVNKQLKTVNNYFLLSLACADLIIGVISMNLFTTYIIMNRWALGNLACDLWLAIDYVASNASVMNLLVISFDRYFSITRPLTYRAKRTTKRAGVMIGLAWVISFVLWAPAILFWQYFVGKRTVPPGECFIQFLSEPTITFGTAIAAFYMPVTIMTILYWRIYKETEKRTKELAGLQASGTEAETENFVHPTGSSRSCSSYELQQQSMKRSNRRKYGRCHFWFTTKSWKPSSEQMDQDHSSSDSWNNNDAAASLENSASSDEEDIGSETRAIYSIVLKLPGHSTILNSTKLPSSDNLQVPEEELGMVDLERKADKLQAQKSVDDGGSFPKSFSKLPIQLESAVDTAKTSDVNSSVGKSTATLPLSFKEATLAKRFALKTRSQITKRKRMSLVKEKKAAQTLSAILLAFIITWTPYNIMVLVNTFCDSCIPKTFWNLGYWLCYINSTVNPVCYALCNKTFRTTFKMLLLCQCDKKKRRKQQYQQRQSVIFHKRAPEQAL
Chain of Gamma-aminobutyric acid receptor subunit alpha-1/alpha-2/beta-2/gamma-2 (P14867 whole entry): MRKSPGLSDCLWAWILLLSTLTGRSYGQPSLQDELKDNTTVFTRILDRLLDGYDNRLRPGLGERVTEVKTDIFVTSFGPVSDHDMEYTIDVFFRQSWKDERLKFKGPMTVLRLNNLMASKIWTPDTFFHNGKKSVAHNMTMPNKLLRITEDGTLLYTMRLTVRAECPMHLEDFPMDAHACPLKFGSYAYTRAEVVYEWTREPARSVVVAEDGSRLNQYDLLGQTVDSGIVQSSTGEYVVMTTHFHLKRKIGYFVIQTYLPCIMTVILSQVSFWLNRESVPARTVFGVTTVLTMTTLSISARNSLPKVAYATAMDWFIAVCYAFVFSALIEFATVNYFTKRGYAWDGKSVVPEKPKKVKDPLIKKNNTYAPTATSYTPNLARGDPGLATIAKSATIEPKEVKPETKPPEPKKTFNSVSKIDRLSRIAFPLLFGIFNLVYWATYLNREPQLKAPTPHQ
Chain of Gamma-aminobutyric acid receptor subunit alpha-1/alpha-2/beta-2/gamma-2 (P47870 whole entry): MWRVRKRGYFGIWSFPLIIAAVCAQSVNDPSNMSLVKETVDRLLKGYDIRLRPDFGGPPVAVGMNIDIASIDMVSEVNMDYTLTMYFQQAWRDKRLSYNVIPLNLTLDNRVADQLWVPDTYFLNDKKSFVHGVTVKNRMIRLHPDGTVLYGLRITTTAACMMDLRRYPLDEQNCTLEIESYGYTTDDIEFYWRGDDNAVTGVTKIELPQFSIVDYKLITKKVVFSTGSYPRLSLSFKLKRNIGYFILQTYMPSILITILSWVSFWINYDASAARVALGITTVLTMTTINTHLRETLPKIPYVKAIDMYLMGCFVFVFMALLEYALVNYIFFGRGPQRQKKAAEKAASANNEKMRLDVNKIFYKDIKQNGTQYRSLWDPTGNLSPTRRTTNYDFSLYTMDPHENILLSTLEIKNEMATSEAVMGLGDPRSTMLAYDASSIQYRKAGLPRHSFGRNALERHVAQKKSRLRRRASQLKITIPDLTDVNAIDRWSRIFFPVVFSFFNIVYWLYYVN
Chain of Gamma-aminobutyric acid receptor subunit alpha-1/alpha-2/beta-2/gamma-2 (P18507 whole entry): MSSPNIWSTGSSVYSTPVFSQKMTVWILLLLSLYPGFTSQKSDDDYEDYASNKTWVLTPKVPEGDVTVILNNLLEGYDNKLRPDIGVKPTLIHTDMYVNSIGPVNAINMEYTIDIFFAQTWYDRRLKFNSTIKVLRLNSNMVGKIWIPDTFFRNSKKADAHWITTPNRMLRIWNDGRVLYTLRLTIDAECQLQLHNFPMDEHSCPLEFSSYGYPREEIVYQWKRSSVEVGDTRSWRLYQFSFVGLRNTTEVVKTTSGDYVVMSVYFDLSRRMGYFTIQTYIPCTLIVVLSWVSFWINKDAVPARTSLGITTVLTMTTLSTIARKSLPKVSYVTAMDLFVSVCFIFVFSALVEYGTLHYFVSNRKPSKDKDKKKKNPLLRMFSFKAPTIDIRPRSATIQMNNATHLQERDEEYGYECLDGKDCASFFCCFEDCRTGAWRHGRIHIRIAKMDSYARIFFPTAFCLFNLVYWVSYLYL
Chain of Gamma-aminobutyric acid receptor subunit alpha-1/alpha-2/beta-2/gamma-2 (P47869 whole entry): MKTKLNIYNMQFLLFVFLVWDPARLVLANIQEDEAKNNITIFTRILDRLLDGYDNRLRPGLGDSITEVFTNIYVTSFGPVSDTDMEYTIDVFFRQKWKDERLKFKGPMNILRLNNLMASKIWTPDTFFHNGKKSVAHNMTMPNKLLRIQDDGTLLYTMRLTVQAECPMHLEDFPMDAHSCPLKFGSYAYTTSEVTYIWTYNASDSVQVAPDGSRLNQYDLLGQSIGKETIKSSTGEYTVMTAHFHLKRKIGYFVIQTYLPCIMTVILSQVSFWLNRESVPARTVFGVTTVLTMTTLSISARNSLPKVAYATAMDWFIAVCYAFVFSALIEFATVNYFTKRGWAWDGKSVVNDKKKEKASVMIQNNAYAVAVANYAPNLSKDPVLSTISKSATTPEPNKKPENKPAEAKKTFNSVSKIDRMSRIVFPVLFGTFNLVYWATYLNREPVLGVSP
Chain of Vasopressin V1a receptor (P37288 whole entry): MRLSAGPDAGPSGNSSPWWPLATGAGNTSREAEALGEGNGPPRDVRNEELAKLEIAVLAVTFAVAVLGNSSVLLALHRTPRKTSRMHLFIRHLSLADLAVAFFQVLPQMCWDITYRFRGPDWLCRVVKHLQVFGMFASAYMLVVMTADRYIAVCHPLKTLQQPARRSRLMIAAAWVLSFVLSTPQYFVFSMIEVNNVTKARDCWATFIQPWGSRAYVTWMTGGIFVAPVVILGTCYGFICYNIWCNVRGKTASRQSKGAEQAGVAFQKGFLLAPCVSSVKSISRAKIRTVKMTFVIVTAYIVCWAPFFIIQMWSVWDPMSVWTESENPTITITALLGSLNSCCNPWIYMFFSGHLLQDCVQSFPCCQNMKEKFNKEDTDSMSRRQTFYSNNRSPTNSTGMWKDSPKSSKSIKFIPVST
Chain of Cannabinoid receptor 1 (P21554 whole entry): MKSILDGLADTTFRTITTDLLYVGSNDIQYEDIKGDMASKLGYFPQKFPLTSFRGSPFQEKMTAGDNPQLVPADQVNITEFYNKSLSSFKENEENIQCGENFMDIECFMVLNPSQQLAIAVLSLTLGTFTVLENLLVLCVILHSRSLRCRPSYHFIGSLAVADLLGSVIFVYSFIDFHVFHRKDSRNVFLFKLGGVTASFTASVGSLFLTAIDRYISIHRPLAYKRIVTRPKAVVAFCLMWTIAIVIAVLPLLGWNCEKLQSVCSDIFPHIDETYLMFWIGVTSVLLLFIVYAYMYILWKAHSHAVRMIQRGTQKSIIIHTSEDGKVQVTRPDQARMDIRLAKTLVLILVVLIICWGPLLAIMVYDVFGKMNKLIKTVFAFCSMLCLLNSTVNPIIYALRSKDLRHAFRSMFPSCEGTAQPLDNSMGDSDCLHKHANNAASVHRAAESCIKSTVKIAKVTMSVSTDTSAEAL
Chain of Histamine H3 receptor (Q9Y5N1 whole entry): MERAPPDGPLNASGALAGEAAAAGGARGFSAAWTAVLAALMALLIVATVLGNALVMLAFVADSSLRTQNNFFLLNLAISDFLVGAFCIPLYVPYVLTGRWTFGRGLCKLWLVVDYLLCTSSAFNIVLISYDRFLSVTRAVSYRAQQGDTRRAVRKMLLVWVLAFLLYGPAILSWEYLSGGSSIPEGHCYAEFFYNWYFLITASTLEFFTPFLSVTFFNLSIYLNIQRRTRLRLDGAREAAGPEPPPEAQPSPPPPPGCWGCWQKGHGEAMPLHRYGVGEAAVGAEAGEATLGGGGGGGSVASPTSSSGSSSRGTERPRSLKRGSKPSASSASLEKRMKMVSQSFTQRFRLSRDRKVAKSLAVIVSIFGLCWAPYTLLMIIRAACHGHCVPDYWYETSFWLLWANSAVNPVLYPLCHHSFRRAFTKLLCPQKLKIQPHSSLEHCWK
T1 sequence (P07550 whole entry): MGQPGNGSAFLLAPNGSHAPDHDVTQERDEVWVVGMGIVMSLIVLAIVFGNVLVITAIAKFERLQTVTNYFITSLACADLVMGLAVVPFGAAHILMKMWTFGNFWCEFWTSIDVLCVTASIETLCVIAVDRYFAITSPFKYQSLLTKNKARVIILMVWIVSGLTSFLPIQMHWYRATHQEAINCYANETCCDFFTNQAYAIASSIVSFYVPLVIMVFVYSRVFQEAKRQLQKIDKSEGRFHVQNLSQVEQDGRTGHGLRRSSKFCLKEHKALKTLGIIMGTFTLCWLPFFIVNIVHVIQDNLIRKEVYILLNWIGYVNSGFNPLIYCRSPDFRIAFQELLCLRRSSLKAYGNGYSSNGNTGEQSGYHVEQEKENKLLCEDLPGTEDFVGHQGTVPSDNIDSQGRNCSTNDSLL

For `CC/C(=C(\c1ccccc1)c1ccc(OCCN(C)C)cc1)c1ccccc1` [TAMOXIFEN], the AC50 at Histamine H3 receptor was over 30 µM; in assay [1], 13.6 µM; on Mu-type opioid receptor [2], over 30 µM; in [3], over 10 µM.

Take `COc1ccc2c3c1O[C@H]1[C@@H](O)CC[C@H]4[C@@H](C2)N(C)CC[C@@]341` [DIHYDROCODEINE]: the AC50 (in [4]; in assay [5]; in assay [6]; in [7]; at Histamine H1 receptor; in assay [8]) was over 30 µM throughout.

Consider `Clc1ccccc1C(c1ccccc1)(c1ccccc1)n1ccnc1` [CLOTRIMAZOLE], for which the half-maximal activity concentration (AC50) was over 10 µM at Histamine H3 receptor; 15 µM in assay [1]; over 10 µM at Cannabinoid receptor 1; over 30 µM in assay [7]; over 10 µM in [3].

`Cc1c(OCC(F)(F)F)ccnc1C[S+]([O-])c1nc2ccccc2[nH]1` (stereo not drawn) [LANSOPRAZOLE]: the AC50 in [9] was 22 µM; in [1] it was over 10 µM; at Endothelin-1 receptor, over 30 µM; at Mu-type opioid receptor [2] it was 4 µM; in assay [3], over 10 µM; on Mu-type opioid receptor [10], 4.2 µM. Further, the concentration at half-maximal activity (AC50) at Vasopressin V1a receptor is over 10 µM.

Turning to `C[C@H]1COc2c(C3(N)CC3)c(F)cc3c(=O)c(C(=O)O)cn1c23` [PAZUFLOXACIN], the AC50 in [1] is over 10 µM; on Mu-type opioid receptor [2], over 30 µM; at Cannabinoid receptor 1, over 10 µM; in assay [5] it was over 10 µM; in assay [6] it was over 30 µM; in [3] it was over 10 µM. For the same compound, the AC50 (on Vasopressin V1a receptor; at Histamine H1 receptor; in assay [8]) was over 10 µM each time.

For the compound `CC(CC1c2ccccc2CCc2ccccc21)CN(C)C` (stereo not drawn) [BUTRIPTYLINE], the AC50 in [4] was over 30 µM; in [5] it was over 30 µM; in [6], 1.4 µM; in assay [7], over 30 µM; at Histamine H1 receptor, 0.015 µM; in [8], 15 µM.

Turning to `Cc1nnc2n1-c1ccc(Cl)cc1C(c1ccccc1Cl)=NC2` [TRIAZOLAM], the AC50 at Histamine H3 receptor was over 10 µM; in assay [9] it was over 30 µM; in [1], over 10 µM; at Mu-type opioid receptor [2] it was over 30 µM; in assay [5], over 30 µM; in assay [6], over 30 µM. The AC50 in assay [3] is over 10 µM; at Vasopressin V1a receptor it was over 30 µM; on Histamine H1 receptor, over 10 µM; in [8] it was over 30 µM.

As to `C#C[C@]1(O)CC[C@H]2[C@@H]3[C@H](C)CC4=C(CCC(=O)C4)[C@H]3CC[C@@]21C` [TIBOLONE], the AC50 (on Histamine H3 receptor; in [9]; on Endothelin-1 receptor; in assay [7]; at Mu-type opioid receptor [10]) was over 30 µM throughout.

Take `NC(=O)OCC(COC(N)=O)c1ccccc1` [FELBAMATE]: the AC50 was over 10 µM in [1]; over 30 µM on Mu-type opioid receptor [2]; over 10 µM on Cannabinoid receptor 1; over 10 µM in assay [5]; over 30 µM in assay [6]; over 10 µM in [3]. Also, the AC50 (at Vasopressin V1a receptor; at Histamine H1 receptor; in [8]) was over 10 µM throughout.

Consider `COc1ccc(CCNCC(O)COc2cccc(C)c2)cc1OC` (stereo not drawn) [BEVANTOLOL], for which the concentration at half-maximal activity (AC50) at Mu-type opioid receptor [2] was over 10 µM; at Cannabinoid receptor 1 it was over 10 µM; in assay [5] it was over 10 µM; in [6] it was over 30 µM; in assay [3], 1.2 µM; on Mu-type opioid receptor [10] it was over 30 µM. For the same compound, the AC50 (at Vasopressin V1a receptor; at Histamine H1 receptor; in assay [8]) was over 10 µM in each case.

On to `CC(C)(C)NCC(O)COc1cccc2c1CCC(=O)N2` (stereo not drawn) [CARTEOLOL], for which the AC50 was over 30 µM at Mu-type opioid receptor [2]; over 10 µM in assay [5]; over 30 µM in [6]; over 10 µM in assay [3]; over 10 µM on Vasopressin V1a receptor; over 10 µM at Histamine H1 receptor. The AC50 in assay [8] was over 10 µM.

On to `COc1cccc(C2(O)CCCCC2CN(C)C)c1` (stereo not drawn) [TRAMADOL], for which the AC50 on Histamine H3 receptor is over 10 µM; in assay [9], over 30 µM; in [1] it was over 10 µM; at Endothelin-1 receptor, over 30 µM; on Cannabinoid receptor 1, over 10 µM; in assay [7], over 30 µM. Besides, the AC50 (in [3]; on Vasopressin V1a receptor) was over 10 µM throughout.

For the compound `Brc1c(NC2=NCCN2)ccc2nccnc12` [BRIMONIDINE], the AC50 (at Histamine H3 receptor; in assay [4]; in assay [9]; on Endothelin-1 receptor; in assay [7]; at Mu-type opioid receptor [10]) was over 30 µM throughout.

With `Nc1nc(Cl)nc2c1ncn2[C@H]1C[C@H](O)[C@@H](CO)O1` [CLADRIBINE], the AC50 (on Histamine H3 receptor; in [4]; in assay [9]; at Endothelin-1 receptor; in [7]; on Mu-type opioid receptor [10]) was over 30 µM in each case.

With `Fc1ccc(C(c2ccccc2)(c2ccccc2F)n2ccnc2)cc1` (stereo not drawn) [FLUTRIMAZOLE], the AC50 on Histamine H3 receptor is over 30 µM; in [9], 25 µM; in [1] it was over 30 µM; on Endothelin-1 receptor, over 30 µM; in [5], over 30 µM; at Androgen receptor it was over 30 µM. The AC50 (in assay [6]; at Mu-type opioid receptor [10]; at Vasopressin V1a receptor; at Histamine H1 receptor; in [8]) was over 30 µM in each case.
